Laboratory results taken from the supplement of paper PMC10307832.

What was measured:
Experiment in all cases: relative viability (nuclei count vs DMSO), 5 days (fraction); higher = more cells survive
[1] = compound: CC(C)CCN1c2nc(Nc3cc(F)c(O)c(F)c3)ncc2N(C)C(=O)C1C [BI-D1870] + Nc1nc2[nH]cc(CCc3ccc(C(=O)N[C@@H](CCC(=O)O)C(=O)O)cc3)c2c(=O)[nH]1 [Pemetrexed] (partner 0.2 µM)
Summary of the method: (§1)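 Cells from lung cancer lines were seeded into 1536-well plates and, one day later, dosed by pin tool. Treatments were either a single drug or a fixed dose of an anchor drug with five library-drug doses (not always all listed) in √10 steps. After 5 days, nuclei were stained in a one-step fixation (final 0.05% Triton X-100, 1% formaldehyde, 1 ug/ml Hoechst) and counted on 4× images, and relative viability is the treated-to-vehicle nuclei ratio, as the median of duplicate plates.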

[2] = compound: O=c1ncccn1[C@@H]1O[C@H](CO)[C@@H](O)[C@H]1O [Zebularine] + CC(=O)Nc1cccc(-n2c(=O)n(C3CC3)c(=O)c3c(Nc4ccc(I)cc4F)n(C)c(=O)c(C)c32)c1 [Trametinib] (partner 0.02 µM)
Summary of the method: as §1

[3] = compound: O=c1ncccn1[C@@H]1O[C@H](CO)[C@@H](O)[C@H]1O [Zebularine] + COc1cc2c(Oc3ccc(NC(=O)C4(C(=O)Nc5ccc(F)cc5)CC4)cc3F)ccnc2cc1OCCCN1CCOCC1 [Foretinib] (partner 0.25 µM)
Summary of the method: as §1

[4] = compound: O=c1ncccn1[C@@H]1O[C@H](CO)[C@@H](O)[C@H]1O [Zebularine] + Nc1nc2[nH]cc(CCc3ccc(C(=O)N[C@@H](CCC(=O)O)C(=O)O)cc3)c2c(=O)[nH]1 [Pemetrexed] (partner 0.2 µM)
Summary of the method: as §1

Cell Line	relative viability ([1]; first compound 0.04 µM)	relative viability ([1]; first compound 0.1265 µM)	relative viability ([1]; first compound 0.4 µM)	relative viability ([1]; first compound 1.265 µM)	relative viability ([1]; first compound 4 µM)	relative viability ([2]; first compound 1 µM)	relative viability ([2]; first compound 3.162 µM)	relative viability ([2]; first compound 10 µM)	relative viability ([2]; first compound 31.62 µM)	relative viability ([2]; first compound 100 µM)	relative viability ([3]; first compound 1 µM)	relative viability ([3]; first compound 3.162 µM)	relative viability ([3]; first compound 10 µM)	relative viability ([3]; first compound 31.62 µM)	relative viability ([3]; first compound 100 µM)	relative viability ([4]; first compound 1 µM)	relative viability ([4]; first compound 3.162 µM)	relative viability ([4]; first compound 10 µM)	relative viability ([4]; first compound 31.62 µM)	relative viability ([4]; first compound 100 µM)
NCI-H2342	0.759	0.768	0.764	0.81	0.816	0.891	0.768	0.751	0.756	0.712	1.33	1.07	0.802	0.953	0.748	0.795	0.73	0.572	0.749	0.628
HCC-15	0.222	0.23	0.229	0.215	0.187	0.375	0.377	0.395	0.392	0.298	1.21	1.08	0.833	0.861	0.434	0.23	0.213	0.201	0.219	0.186
A-427	1.02	0.982	0.994	0.963	0.784	0.763	0.746	0.698	0.448	0.267	1.22	0.965	0.579	0.468	0.232	1.08	0.991	0.95	0.538	0.294
NCI-H2228	0.33	0.345	0.349	0.353	0.195	0.612	0.251	–	0.417	0.252	0.902	0.898	0.507	0.914	0.281	0.403	0.293	–	0.264	0.152
NCI-H1734	0.403	0.4	0.416	0.412	0.347	0.738	0.641	0.527	0.54	0.275	0.931	0.864	0.631	0.529	0.299	0.39	0.459	0.395	0.36	0.232
PC-14	0.124	0.129	0.141	0.133	0.124	0.7	0.517	0.197	0.117	0.101	1.03	0.878	0.48	0.191	0.158	0.136	0.139	0.0749	0.0697	0.0552
NCI-H1915	0.473	0.489	0.458	0.419	0.381	0.315	0.31	0.322	0.319	0.287	1.3	1.11	–	1.26	0.984	0.54	0.46	0.449	0.553	0.513
NCI-H1666	0.857	0.835	0.895	0.812	0.779	0.884	0.817	0.699	0.865	0.842	0.94	0.919	0.805	0.999	0.805	0.878	0.788	0.753	0.824	0.791
HCC-366	0.148	0.174	0.215	0.176	0.118	0.425	0.402	0.274	0.313	0.0973	0.935	0.922	0.797	0.65	0.163	0.168	0.179	0.136	0.192	0.0894
SK-MES-1	0.992	0.874	0.895	0.716	0.622	0.558	0.581	0.491	0.503	0.305	1.12	0.828	0.794	0.742	0.337	1.08	0.918	0.613	0.709	0.322
SW 1573	0.855	0.775	0.826	0.845	0.35	0.577	0.645	–	0.545	0.61	0.871	0.767	0.802	0.999	0.885	0.798	0.854	–	0.855	0.522
NCI-H661	0.913	0.906	0.931	0.928	0.857	0.601	0.596	0.457	0.651	0.639	0.989	1.04	0.991	1.18	1.02	0.939	0.951	0.832	0.995	0.891
PC-3 [JPC-3]	1.1	1.1	1.01	0.806	0.479	0.779	0.696	0.622	0.71	0.539	1.09	1.07	0.67	0.829	0.444	1.43	1.06	1.07	0.755	0.813
NCI-H1623	–	–	–	–	–	–	–	–	–	–	1	0.733	0.723	0.791	0.484	–	–	–	–	–
Calu-6	–	–	–	–	–	–	–	–	–	–	0.959	0.84	0.702	0.798	0.275	–	–	–	–	–
LC-2-ad	0.292	0.267	0.264	0.275	0.253	0.957	0.979	0.657	0.777	0.356	0.868	0.828	0.717	0.674	0.454	0.276	0.289	0.27	0.255	0.259
CAL-12T	1.29	1.16	1.33	1.15	0.736	0.381	0.338	0.309	0.328	0.319	1.2	1.09	0.931	1.15	0.671	1.43	1.1	0.914	1.18	0.47
RERF-LC-KJ	0.453	0.447	0.476	0.527	0.413	1.02	0.89	0.719	0.87	0.916	1	0.879	–	0.895	0.871	0.447	0.505	0.415	0.507	0.443
NCI-H1650	0.405	0.358	0.338	0.427	0.373	0.674	0.597	0.399	0.9	0.488	1.26	1.02	0.905	1.46	1.07	0.381	0.35	0.387	0.523	0.33
BEN	0.784	0.628	0.743	0.96	0.697	0.996	0.994	0.781	0.491	0.49	0.648	0.44	0.341	0.336	0.194	0.943	0.636	0.584	0.562	0.306

Cell Line	relative viability ([1]; first compound 0.04 µM)	relative viability ([1]; first compound 0.1265 µM)	relative viability ([1]; first compound 0.4 µM)	relative viability ([1]; first compound 1.265 µM)	relative viability ([1]; first compound 4 µM)	relative viability ([2]; first compound 1 µM)	relative viability ([2]; first compound 3.162 µM)	relative viability ([2]; first compound 10 µM)	relative viability ([2]; first compound 31.62 µM)	relative viability ([2]; first compound 100 µM)	relative viability ([3]; first compound 1 µM)	relative viability ([3]; first compound 3.162 µM)	relative viability ([3]; first compound 10 µM)	relative viability ([3]; first compound 31.62 µM)	relative viability ([3]; first compound 100 µM)	relative viability ([4]; first compound 1 µM)	relative viability ([4]; first compound 3.162 µM)	relative viability ([4]; first compound 10 µM)	relative viability ([4]; first compound 31.62 µM)	relative viability ([4]; first compound 100 µM)
EMC-BAC-2	0.457	0.456	0.421	0.541	0.46	0.97	0.9	0.766	0.901	0.941	1.09	1.02	0.856	1.04	1.03	0.496	0.466	0.428	0.458	0.474
LU99A	0.178	0.2	0.171	0.183	0.135	0.604	0.503	0.502	0.329	0.195	0.884	0.807	0.577	0.436	0.195	0.182	0.236	0.162	0.134	0.146
ABC-1	–	–	–	–	–	–	–	–	–	–	1.16	1.11	0.681	0.783	0.473	–	–	–	–	–
NCI-H2170	0.299	0.269	0.261	0.249	0.403	0.931	0.919	0.677	0.874	0.441	0.983	1.02	0.909	0.98	0.611	0.273	0.289	0.273	0.27	0.221
NCI-H1299	–	–	–	–	–	–	–	–	–	–	1.12	1.05	0.947	1.11	0.549	–	–	–	–	–
EBC-1	–	–	–	–	–	–	–	–	–	–	0.102	0.105	0.0888	0.0884	0.109	–	–	–	–	–
NCI-H2347	0.515	0.443	0.427	0.438	0.393	0.294	0.299	0.237	0.312	0.235	1.02	0.856	0.881	0.614	0.813	0.459	0.466	0.402	0.361	0.335
NCI-H1993	0.646	0.605	0.582	0.594	0.475	0.55	0.506	0.51	0.574	0.367	0.843	0.697	0.718	0.753	0.704	0.612	0.65	0.518	0.58	0.585
NCI-H322M	0.632	0.564	0.596	0.59	0.517	0.489	0.515	0.481	0.551	0.509	0.914	0.945	0.645	0.773	0.647	0.595	0.565	0.501	0.635	0.59
NCI-H838	0.267	0.249	0.31	0.248	0.262	0.58	0.537	0.415	0.437	0.231	1.08	1.03	0.705	0.698	0.322	0.259	0.267	0.234	0.221	0.17
HARA	0.234	0.227	0.267	0.243	0.218	1.03	0.458	0.48	0.688	0.651	0.979	–	–	0.912	0.584	0.295	0.253	0.214	0.324	0.307
NCI-H1648	0.619	0.588	–	0.802	0.661	0.628	0.469	0.435	0.421	0.419	–	–	–	–	–	0.652	0.613	0.518	0.804	0.683
NCI-H1792	1.12	0.795	0.706	1.11	0.634	0.472	0.351	0.187	0.176	0.182	–	–	–	–	–	1.04	0.71	0.24	0.307	0.271
HCC-44	0.653	0.631	0.632	0.75	0.689	1.04	1.11	0.968	1.1	0.668	–	–	–	–	–	0.723	0.625	0.646	0.679	0.445
A549	–	–	–	–	–	–	–	–	–	–	0.898	0.996	0.743	0.855	0.0887	–	–	–	–	–
NCI-H1563	0.869	0.793	0.776	0.776	0.841	–	–	–	–	–	0.915	0.952	0.922	0.991	0.898	0.896	0.717	0.689	0.728	0.791
NCI-H522	1.24	1.01	0.978	1	0.984	0.815	0.704	0.667	0.758	0.723	–	–	–	–	–	0.888	1.1	0.967	1.03	0.95
IA-LM	–	–	–	–	–	–	–	–	–	–	1.1	1.14	–	1.34	0.877	–	–	–	–	–
NCI-H1703	–	–	–	–	–	–	–	–	–	–	0.338	0.285	–	0.35	0.389	–	–	–	–	–
NCI-H727	–	–	–	–	–	0.385	0.35	0.401	0.396	0.444	0.951	0.85	0.769	1.03	0.723	–	–	–	–	–
